Assay results from patent US9623025B2 (priority 2009, dated 2017).

Biological target: hCA IX (Homo sapiens, UniProt Q16790)
Assay: biochemical

Ki: 41.9 to 75.7 nM
Compound: Cc1cn(-c2cc(NC(=O)c3ccc(C)c(Nc4nccc(-c5cccnc5)n4)c3)cc(C(F)(F)F)c2)cn1 [Nilotinib, 4-methyl-3-[[4-(3-pyridinyl)-2-pyrimidinyl]amino]-N-[5-(4-methyl-1H-imidazol-1-yl)-3-(trifluoromethyl)phenyl] benzamide]
